Experimental data taken from ChEMBL document CHEMBL1201862, “PubChem BioAssay data set” (2004).
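96-well plates; 48 h exposure; 5 concentrations. Endpoints by linear interpolation between flanking doses. Not reached: highest tested concentration assigned. GI50 marks 50% less growth.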 Calls of active or inactive are those of the source. No stated cut-off is given here; in the data, active = GI50 up to about 1.1 µM and inactive = higher.

Tests used:
Test in all cases: NCI-60 cell line screen, 48 h
HOP-62 = system: HOP-62
LOX IMVI = system: LOX IMVI
OVCAR-4 = system: OVCAR-4
786-0 = system: 786-0
NCI-H226 = system: NCI-H226
CAKI-1 = system: CAKI-1
UO-31 = system: UO-31
IGROV-1 = system: IGROV-1
HCT-116 = system: HCT-116
SW-620 = system: SW-620
M14 = system: M14
NCI-H522 = system: NCI-H522
UACC-62 = system: UACC-62
NCI-H23 = system: NCI-H23
SF-295 = system: SF-295
SN12C = system: SN12C
Hs-578T = system: Hs-578T
MDA-MB-435 = system: MDA-MB-435
Malme-3M = system: Malme-3M
T47D = system: T47D

| SMILES | GI50 (HOP-62) | GI50 (LOX IMVI) | GI50 (OVCAR-4) | GI50 (786-0) | GI50 (NCI-H226) | GI50 (CAKI-1) | GI50 (UO-31) | GI50 (IGROV-1) | GI50 (HCT-116) | GI50 (SW-620) | GI50 (M14) | GI50 (NCI-H522) | GI50 (UACC-62) | GI50 (NCI-H23) | GI50 (SF-295) | GI50 (SN12C) | GI50 (Hs-578T) | GI50 (MDA-MB-435) | GI50 (Malme-3M) | GI50 (T47D) |
| --- | --- | --- | --- | --- | --- | --- | --- | --- | --- | --- | --- | --- | --- | --- | --- | --- | --- | --- | --- | --- |
| O=C(NCCCNCCCNC(=O)c1cc(-c2ccccc2)nc2ccccc12)c1cc(-c2ccccc2)nc2ccccc12 | 1.11 µM (active) | 1.8 µM (inactive) | 1.74 µM (inactive) | 1.74 µM (inactive) | 1.69 µM (inactive) | 1.9 µM (inactive) | 1.83 µM (inactive) | 1.88 µM (inactive) | 1.73 µM (inactive) | 2.39 µM (inactive) | 1.79 µM (inactive) | 2.01 µM (inactive) | 1.93 µM (inactive) | 1.86 µM (inactive) | 1.88 µM (inactive) | 1.84 µM (inactive) | 2.35 µM (inactive) | 1.64 µM (inactive) | 2.13 µM (inactive) | 2.02 µM (inactive) |
| Cn1c(S)nnc1-c1csc(-c2ccc(Cl)cc2)n1 | 15.4 µM (inactive) | 21.7 µM (inactive) | 26.1 µM (inactive) | 17 µM (inactive) | 23.1 µM (inactive) | 23.4 µM (inactive) | 22.5 µM (inactive) | 16 µM (inactive) | 17.7 µM (inactive) | 32.6 µM (inactive) | 33.1 µM (inactive) | 19.4 µM (inactive) | 23.9 µM (inactive) | 15 µM (inactive) | 15.6 µM (inactive) | 38.8 µM (inactive) | 29.7 µM (inactive) | > 100 µM (inactive) | 30.3 µM (inactive) | 35.3 µM (inactive) |
| NC(=S)SC1=NC(=O)C2(NN1)c1ccccc1-c1ccccc12 | > 10 µM (inactive) | > 10 µM (inactive) | > 10 µM (inactive) | > 10 µM (inactive) | > 10 µM (inactive) | > 10 µM (inactive) | 9.1 µM (inactive) | > 10 µM (inactive) | > 10 µM (inactive) | > 10 µM (inactive) | > 10 µM (inactive) | 4.27 µM (inactive) | > 10 µM (inactive) | > 10 µM (inactive) | > 10 µM (inactive) | > 10 µM (inactive) | > 10 µM (inactive) | > 10 µM (inactive) | > 10 µM (inactive) | 1.67 µM (inactive) |
| Cc1ccc(-c2nc3cc(Cl)ccc3[nH]2)cc1 | > 100 µM (inactive) | > 100 µM (inactive) | > 100 µM (inactive) | > 100 µM (inactive) | > 100 µM (inactive) | > 100 µM (inactive) | > 100 µM (inactive) | > 100 µM (inactive) | > 100 µM (inactive) | > 100 µM (inactive) | > 100 µM (inactive) | 91.2 µM (inactive) | > 100 µM (inactive) | > 100 µM (inactive) | > 100 µM (inactive) | > 100 µM (inactive) | > 100 µM (inactive) | 54.1 µM (inactive) | > 100 µM (inactive) | > 100 µM (inactive) |
| O=C1N[C@@H]2c3c(Br)sc(Br)c3C(=O)[C@@H]2N1 | 6.65 µM (inactive) | 1.93 µM (inactive) | 3.94 µM (inactive) | 2.41 µM (inactive) | 29.6 µM (inactive) | 3.8 µM (inactive) | 3.53 µM (inactive) | 2.26 µM (inactive) | 1.89 µM (inactive) | 1.77 µM (inactive) | 3.82 µM (inactive) | 5.04 µM (inactive) | 4.73 µM (inactive) | 4.43 µM (inactive) | 15.5 µM (inactive) | 4.22 µM (inactive) | 8.28 µM (inactive) | 2.1 µM (inactive) | 4.52 µM (inactive) | 5.64 µM (inactive) |
| c1ccc(-c2cc(-c3cc(-c4ccccc4)no3)on2)cc1 | 72.1 µM (inactive) | 40.8 µM (inactive) | 19.4 µM (inactive) | 72.1 µM (inactive) | 71 µM (inactive) | > 100 µM (inactive) | > 100 µM (inactive) | 35.2 µM (inactive) | 55.8 µM (inactive) | > 100 µM (inactive) | > 100 µM (inactive) | > 100 µM (inactive) | > 100 µM (inactive) | 49.1 µM (inactive) | 53.8 µM (inactive) | 42.5 µM (inactive) | 47.6 µM (inactive) | > 100 µM (inactive) | > 100 µM (inactive) | 81.3 µM (inactive) |
| COc1cc(N(CCC#N)CCC#N)ccc1C(=N/NC(=O)c1cc(Br)ccc1O)/N=N/c1ccccc1 | 24 µM (inactive) | 25.8 µM (inactive) | 19.6 µM (inactive) | 29.1 µM (inactive) | 33.2 µM (inactive) | 27 µM (inactive) | 21.6 µM (inactive) | 13.8 µM (inactive) | 21.5 µM (inactive) | 31.6 µM (inactive) | 29 µM (inactive) | 23.4 µM (inactive) | 20 µM (inactive) | 21.4 µM (inactive) | 31.6 µM (inactive) | 31.8 µM (inactive) | 61.2 µM (inactive) | 36.6 µM (inactive) | 31.7 µM (inactive) | 24 µM (inactive) |
| Cc1cc2ccccc2n1CC(=O)NCC(C)C | > 100 µM (inactive) | > 100 µM (inactive) | > 100 µM (inactive) | > 100 µM (inactive) | > 100 µM (inactive) | > 100 µM (inactive) | > 100 µM (inactive) | > 100 µM (inactive) | > 100 µM (inactive) | > 100 µM (inactive) | > 100 µM (inactive) | > 100 µM (inactive) | > 100 µM (inactive) | > 100 µM (inactive) | > 100 µM (inactive) | > 100 µM (inactive) | > 100 µM (inactive) | > 100 µM (inactive) | > 100 µM (inactive) | > 100 µM (inactive) |
| Oc1cc(Cc2ccccc2)c(Cc2ccccc2)cc1O | > 10 µM (inactive) | > 10 µM (inactive) | > 10 µM (inactive) | > 10 µM (inactive) | > 10 µM (inactive) | > 10 µM (inactive) | > 10 µM (inactive) | > 10 µM (inactive) | > 10 µM (inactive) | > 10 µM (inactive) | > 10 µM (inactive) | > 10 µM (inactive) | > 10 µM (inactive) | > 10 µM (inactive) | > 10 µM (inactive) | > 10 µM (inactive) | > 10 µM (inactive) | > 10 µM (inactive) | > 10 µM (inactive) | > 10 µM (inactive) |
| COc1cc2c(cc1OC)-c1cc3cc(OC)c(OC)cc3c(C)[n+]1CC2.O=C([O-])CS(=O)(=O)O | > 100 µM (inactive) | > 100 µM (inactive) | > 100 µM (inactive) | > 100 µM (inactive) | > 100 µM (inactive) | > 100 µM (inactive) | > 100 µM (inactive) | 61.1 µM (inactive) | 73.5 µM (inactive) | > 100 µM (inactive) | > 100 µM (inactive) | 6.78 µM (inactive) | 23.2 µM (inactive) | 35.4 µM (inactive) | > 100 µM (inactive) | 37.6 µM (inactive) | > 100 µM (inactive) | 76.4 µM (inactive) | 29.3 µM (inactive) | 2.82 µM (inactive) |
| O=[N+]([O-])/C=C/c1cccc(F)c1 | 10.3 µM (inactive) | 0.912 µM (active) | 3.75 µM (inactive) | 1.66 µM (inactive) | 2.25 µM (inactive) | 12.9 µM (inactive) | 2.54 µM (inactive) | 1.37 µM (inactive) | 0.603 µM (active) | 2.58 µM (inactive) | 2.74 µM (inactive) | 12.3 µM (inactive) | 8.04 µM (inactive) | 3.48 µM (inactive) | 11.4 µM (inactive) | 17 µM (inactive) | 3.12 µM (inactive) | 3.24 µM (inactive) | 15.8 µM (inactive) | 4.88 µM (inactive) |
| CCSc1nc(COC(=O)NC)c(COC(=O)NC)n1C | 99.3 µM (inactive) | > 97.1 µM (inactive) | > 75.7 µM (inactive) | 99.5 µM (inactive) | > 100 µM (inactive) | 49.5 µM (inactive) | > 95.9 µM (inactive) | > 79.8 µM (inactive) | > 100 µM (inactive) | > 100 µM (inactive) | > 64.1 µM (inactive) | 40.6 µM (inactive) | 34.1 µM (inactive) | 99.5 µM (inactive) | > 100 µM (inactive) | > 100 µM (inactive) | > 100 µM (inactive) | > 100 µM (inactive) | > 100 µM (inactive) | > 100 µM (inactive) |
| O=C(O)C(Cc1c[nH]c2ccccc12)N1C(=O)c2ccccc2C1=O (stereo not given) | > 100 µM (inactive) | > 100 µM (inactive) | > 100 µM (inactive) | > 100 µM (inactive) | > 100 µM (inactive) | > 100 µM (inactive) | > 100 µM (inactive) | 16.3 µM (inactive) | > 100 µM (inactive) | > 100 µM (inactive) | > 100 µM (inactive) | > 100 µM (inactive) | > 100 µM (inactive) | > 100 µM (inactive) | > 100 µM (inactive) | > 100 µM (inactive) | > 100 µM (inactive) | > 100 µM (inactive) | > 100 µM (inactive) | > 100 µM (inactive) |
| COc1nc2nccnc2c(=O)n1C | > 10 µM (inactive) | > 10 µM (inactive) | > 10 µM (inactive) | > 10 µM (inactive) | > 10 µM (inactive) | > 10 µM (inactive) | > 10 µM (inactive) | > 10 µM (inactive) | > 10 µM (inactive) | > 10 µM (inactive) | > 10 µM (inactive) | > 10 µM (inactive) | > 10 µM (inactive) | > 10 µM (inactive) | > 10 µM (inactive) | > 10 µM (inactive) | > 10 µM (inactive) | > 10 µM (inactive) | > 10 µM (inactive) | > 10 µM (inactive) |
